Read-outs that look alike come from different tables or passages of the source. Blank lines part the entries; values can stand above or below the compound they belong to.
Experiments:
[1] = Moisture-sorption analysis (Hiden IGAsorp); assay type: physicochemical; details: 25° C.
Protocol: Moisture-sorption experiments were performed using a Hiden IGAsorp Moisture Sorption instrument on KX2-391.MSA obtained in accordance with the process of the present invention (Example 4). First, the sample was dried at 0% Relative Humidity (RH) and 25° C. until an equilibrium weight was reached or for a maximum of four hours. The sample was then subjected to an isothermal (25° C.) adsorption scan from 10 to 90% RH in steps of 10%. The sample was allowed to equilibrate to an asymptotic weight at each point for a maximum of four hours. Following adsorption, a desorption scan from 85 to 0% RH (at 25° C.) was run in steps of −10% again allowing a maximum of four hours for equilibration to an asymptotic weight. The sample was then dried for one hour at 80° C. and the resulting solid analyzed by XRPD. […] FIG. 10 depicts percent change of water content as a function of relative humidity for KX2-391.MSA, Form A.
Moisture-sorption experiments were performed using a Hiden IGAsorp Moisture Sorption Instrument on KX2-391.2HCl obtained in accordance with the process of the present invention (Example 3). First, the sample was dried at 0% Relative Humidity (RH) and 25° C. until an equilibrium weight was reached or for a maximum of four hours. The sample was then subjected to an isothermal (25° C.) adsorption scan from 10 to 90% RH in steps of 10%. The sample was allowed to equilibrate to an asymptotic weight at each point for a maximum of four hours. Following adsorption, a desorption scan from 85 to 0% RH (at 25° C.) was run in steps of −10% again allowing a maximum of four hours for equilibration to an asymptotic weight. The sample was then dried for one hour at 80° C. and the resulting solid analyzed by XRPD.

[2] = Solubility in DI water and pH 2.0 phosphate buffer; assay type: physicochemical; details: for solubility: thermodynamic from solid
Protocol: The table below summarizes additional characterization data for the fumaric and maleate KX2-391.MSA salts and compares it to free base, bis-HCl, and MSA salts described above. The results in the table below were obtained using the procedures described above in Examples 5 (XRPD), 6 (DSC), 7 (TGA), and 8 (moisture-sorption).
Solubility experiments were also performed using pH 2.0 phosphate buffer and DI water pH 6.9 and KX2-391.MSA, Form A. Each vial was filled with approximately 50 mg of KX2-391.MSA, Form A and 100 μL aliquots of the corresponding solvent was added until complete dissolution was observed, followed by stirring at room temperature for one and five days. The solids obtained were isolated by filtration, dried under vacuum at room temperature and analyzed by HPLC. The initial HPLC purity of KX2-391.MSA, Form A was 99.4 (% area). The solubility by HPLC of KX2-391.MSA, Form A in phosphate buffer/RT was >500 mg/mL and HPLC purity was measured to be 99.4. The solubility by HPLC of KX2-391.MSA, Form A in DI H2O/RT was >500 mg/mL and HPLC purity was measured to be 99.4.

[3] = 5 mg/mL DI water dissolution experiment; assay type: physicochemical; design: key to dissolution state: P—Particulates partially dissolved; D—Particulates fully dissolved; details: for dissolution in 5 mg/mL DI water experiment: 5 mg in 1 mL DI water
Protocol: Dissolution experiments were performed on KX2-391 salts to provide a better understanding of the salts interaction in water. This was accomplished using a 5 mg/mL DI water dissolution experiment where 5 mg of each salt was weighed into a vial and 1 mL of DI wather was added. The solution was monitored visually with magnetic stirring over a 20 minute time period to observe the time of dissolution.

[4] = Threshold solubility of salt screen 96 well plate; details: DI water
Protocol: Following each addition, the plate was shaken to encourage mixing for at least 5 minutes prior to evaluation.

[5] = Humidity chamber hygroscopicity study (salt solution chambers, visual inspection); assay type: physicochemical; details: ambient temperature
Protocol: Further characterization of the hygroscopicity of the mesylate salt was performed using several humidity chambers to cover a range of humidity from 75, 88 to 95% RH. The 75, 88, and 95% RH chambers were prepared with NaCl, BaCl2.2H2O, and Na2HPO4.12 H2O respectively and were equilibrated for 48 hours prior to introducing the samples. Samples were placed into aluminum pans and monitored by visual inspection for up to five days. Table 3 summarizes the observations at 0, 3, 5, 24, 48, 72, 96 and 120 hour time points.
Moisture sorption studies conducted at ambient temperature utilizing salt solution humidity chambers were conducted to evaluate solid stability by visual inspection.

[6] = as above; assay type: physicochemical; details: ambient temperature
[7] = about 5 mg in 1 mL DI water, magnetic stirring, 0 s
[8] = about 5 mg in 1 mL DI water, magnetic stirring, 30 s
[9] = about 5 mg in 1 mL DI water, magnetic stirring, 1 min
[10] = about 5 mg in 1 mL DI water, magnetic stirring, 2 min
[11] = about 5 mg in 1 mL DI water, magnetic stirring, 5 min
[12] = about 5 mg in 1 mL DI water, magnetic stirring, 10 min (1 mL DI water added)
[13] = about 5 mg, after additional 1 mL DI water, 15 min
[14] = about 5 mg, after additional 1 mL DI water, 20 min
[15] = salt screen well: 1 Equivalent of Acid, ACN
[16] = salt screen well: 1 Equivalent of Acid, Acetone
[17] = salt screen well: 1 Equivalent of Acid, Dioxane
[18] = salt screen well: 1 Equivalent of Acid, EtOH
[19] = salt screen well: 1 Equivalent of Acid, IPA
[20] = salt screen well: 1 Equivalent of Acid, THF
[21] = salt screen well: 2 Equivalents of Acid, Acetone
[22] = salt screen well: 2 Equivalents of Acid, Dioxane
[23] = salt screen well: 2 Equivalents of Acid, THF
[24] = % RH 90.0102, end of adsorption
[25] = % RH 90.0102, start of desorption
[26] = % RH −0.0430, end of desorption
[27] = % RH −0.0500, start of adsorption scan

Compound: O=C(Cc1ccc(-c2ccc(OCCN3CCOCC3)cc2)cn1)NCc1ccccc1.O=C(O)C=CC(=O)O [Fumaric]
Moisture Sorption Wt % Water @ 90% RH [1]: 0.5 wt %
Solubility mg/mL [2]: DI H20: 7.6 mg/mL
pH of solubility sample [2]: (4.5*)
Solubility mg/mL ([2]; pH 2): pH 2: 21.5 mg/mL
pH of solubility sample ([2]; pH 2): (4.5*)
dissolution in 5 mg/mL DI water experiment ([3]; magnetic stirring): not observed to dissolve solids within 10 minutes
dissolution state [3, 7]: P
dissolution state [3, 8]: P
dissolution state [3, 9]: P
dissolution state [3, 10]: P
dissolution state [3, 11]: P
dissolution state [3, 12]: P
dissolution state [3, 13]: P
dissolution state [3, 14]: D
Threshold solubility rank [4, 15]: 5
Threshold solubility rank [4, 16]: 5
Threshold solubility rank [4, 17]: 4
Threshold solubility rank [4, 18]: 2
Threshold solubility rank [4, 19]: 2
Threshold solubility rank [4, 20]: 5
Threshold solubility rank ([4]; salt screen well: 2 Equivalents of Acid, ACN): 5
Threshold solubility rank [4, 21]: 5
Threshold solubility rank [4, 22]: 2
Threshold solubility rank ([4]; salt screen well: 2 Equivalents of Acid, IPA): 2
Threshold solubility rank [4, 23]: 5

Compound: Cl.Cl.O=C(Cc1ccc(-c2ccc(OCCN3CCOCC3)cc2)cn1)NCc1ccccc1 [KX2-391.2HCl, 2-(5-(4-(2-morpholinoethoxy)phenyl)pyridine-2-yl)-N-benzylacetamide dihydrochloride]
Time to deliquescence ([5]; 42% RH): <3 h
Results (visual inspection) ([5]; 42% RH, dihydrochloride): deliquescence was observed within three hours
Time to deliquescence ([5]; 51% RH, dihydrochloride): ≤ 12 h
Time to deliquescence ([5]; 51% RH, listed as KX2-391•2HCl, dihydrochloride): <12 h
Results (visual inspection) ([5]; 95% RH): Deliquescence
Time to deliquescence ([5]; 95% RH, dihydrochloride): ≤ 12 h
Time to deliquescence ([5]; 95% RH, listed as KX2-391•2HCl, dihydrochloride): <12 h
deliquescence humidity at ambient temperature [5]: 32-42 % RH
inflection point of moisture sorption (suggesting deliquescence) [1]: 40-50 % RH
hygroscopicity by moisture sorption analysis ([1]; adsorption scan 10 to 90% RH): significantly hygroscopic
water absorbed at 60% RH ([1]; 60% RH): 16.7 wt %
Moisture Sorption Wt % Water @ 90% RH [1]: 27.0 wt %
Mole ration (water:sample) ([1]; % RH 4.9957, desorption): 1.3860
Wt % water ([1]; % RH 4.9957, desorption): 4.7176 Wt %
Mole ration (water:sample) ([1]; % RH 10.0011, adsorption): 2.0998
Wt % water ([1]; % RH 10.0011, adsorption): 6.9776 Wt %
Mole ration (water:sample) ([1]; % RH 15.0035, desorption): 2.0512
Wt % water ([1]; % RH 15.0035, desorption): 6.8271 Wt %
Mole ration (water:sample) ([1]; % RH 20.0071, adsorption): 2.4810
Wt % water ([1]; % RH 20.0071, adsorption): 8.1412 Wt %
Mole ration (water:sample) ([1]; % RH 25.0029, desorption): 4.0655
Wt % water ([1]; % RH 25.0029, desorption): 12.6812 Wt %
Mole ration (water:sample) ([1]; % RH 29.9953, adsorption): 2.7855
Wt % water ([1]; % RH 29.9953, adsorption): 9.0498 Wt %
Mole ration (water:sample) ([1]; % RH 35.0089, desorption): 4.3683
Wt % water ([1]; % RH 35.0089, desorption): 13.4981 Wt %
Mole ration (water:sample) ([1]; % RH 39.9936, adsorption): 3.1317
Wt % water ([1]; % RH 39.9936, adsorption): 10.0615 Wt %
Mole ration (water:sample) ([1]; % RH 45.0063, desorption): 4.6309
Wt % water ([1]; % RH 45.0063, desorption): 14.1945 Wt %
Mole ration (water:sample) ([1]; % RH 50.0083, adsorption): 4.7853
Wt % water ([1]; % RH 50.0083, adsorption): 14.5986 Wt %
Mole ration (water:sample) ([1]; % RH 54.9876, desorption): 4.8578
Wt % water ([1]; % RH 54.9876, desorption): 14.7870 Wt %
Mole ration (water:sample) ([1]; % RH 59.9940, adsorption): 5.6228
Wt % water ([1]; % RH 59.9940, adsorption): 16.7261 Wt %
Mole ration (water:sample) ([1]; % RH 64.9989, desorption): 5.0957
Wt % water ([1]; % RH 64.9989, desorption): 15.3997 Wt %
Mole ration (water:sample) ([1]; % RH 70.0044, adsorption): 6.6487
Wt % water ([1]; % RH 70.0044, adsorption): 19.1922 Wt %
Mole ration (water:sample) ([1]; % RH 75.0016, desorption): 5.5767
Wt % water ([1]; % RH 75.0016, desorption): 16.6119 Wt %
Mole ration (water:sample) ([1]; % RH 80.0002, adsorption): 7.4350
Wt % water ([1]; % RH 80.0002, adsorption): 20.9856 Wt %
Mole ration (water:sample) ([1]; % RH 84.9979, desorption): 8.3910
Wt % water ([1]; % RH 84.9979, desorption): 23.0617 Wt %
Mole ration (water:sample) [1, 24]: 10.3345
Wt % water [1, 24]: 26.9630 Wt %
Mole ration (water:sample) [1, 25]: 10.3345
Wt % water [1, 25]: 26.9630 Wt %
Mole ration (water:sample) [1, 26]: 0.3038
Wt % water [1, 26]: 1.0737 Wt %
Mole ration (water:sample) [1, 27]: 1.7493
Wt % water [1, 27]: 5.8814 Wt %
pH of solubility sample [2]: 2.1
pH of solubility sample ([2]; pH 2): (1.9)
solubility ([2]; pH 2, aqueous buffer): > 500 mg/mL
solubility ([2]; pH 6.9, water): > 500 mg/mL
Results (visual inspection) ([6]; 32% RH, 7 days, dihydrochloride): remain stable
Results (visual inspection) ([6]; 32% RH, 7 days, listed as KX2-391•2HCl, dihydrochloride): Solid
Results (visual inspection) ([6]; 42% RH, dihydrochloride): Deliquescence
Results (visual inspection) ([6]; 51% RH): Deliquescence

Compound: Maleate
Moisture Sorption Wt % Water @ 90% RH [1]: 1.4 wt %
Solubility mg/mL ([2]; DI H2O): DI H20: 7.3 mg/mL
pH of solubility sample ([2]; DI H2O, * approximate, pH paper instead of meter): (4.5*)
Solubility mg/mL ([2]; pH 2): pH 2: 21.2 mg/mL
pH of solubility sample ([2]; pH 2 medium, * approximate, pH paper instead of meter): (4.5*)
dissolution in 5 mg/mL DI water experiment ([3]; magnetic stirring): not observed to dissolve solids within 10 minutes
dissolution state [3, 7]: P
dissolution state [3, 8]: P
dissolution state [3, 9]: P
dissolution state [3, 10]: P
dissolution state [3, 11]: P
dissolution state [3, 12]: P
dissolution state [3, 13]: P
dissolution state [3, 14]: P
Threshold solubility rank [4, 15]: N
Threshold solubility rank [4, 16]: N
Threshold solubility rank [4, 17]: N
Threshold solubility rank [4, 18]: N
Threshold solubility rank [4, 19]: N
Threshold solubility rank [4, 20]: N
Threshold solubility rank [4, 21]: 1
Threshold solubility rank [4, 22]: 1
Threshold solubility rank [4, 23]: 1

Next, values leading:

Threshold solubility rank [4, 17]: 1
Compound: O=C(O)CC(O)C(=O)O (stereo not drawn) [Malic]

Threshold solubility rank [4, 15]: 5
Threshold solubility rank [4, 16]: 5
Threshold solubility rank [4, 17]: 5
Threshold solubility rank [4, 18]: 5
Threshold solubility rank [4, 19]: 5
Threshold solubility rank [4, 20]: 5
Compound: Cc1ccc(S(=O)(=O)O)cc1.O=C(Cc1ccc(-c2ccc(OCCN3CCOCC3)cc2)cn1)NCc1ccccc1 [p-TSA]

— US10323001B2, “Compositions for modulating a kinase cascade and methods of use thereof” (Athenex, Inc., priority 2006, dated 2019)
